Where two headings read alike, the source gives them in different places.
Assays:
Type in all cases: cell-based
Cqui\Orco+Cqui\Or21 [1] = target: T1, Cqui\Orco+Cqui\Or21 (Culex quinquefasciatus, UniProt Q309I4); assay: Antagonism of Orco agonist (OLC12) activation of the OR expressed in Xenopus oocytes, two-electrode voltage clamp; details: for Inhibition of the OLC12 response compared with OX1a (screen): 100 µM compound; for Inhibition of the OLC12 response compared with OX1a (screen) / Antagonist activity compared with the parent analog or OX1a (second screen): 3 µM OLC12; for Antagonist activity compared with the parent analog or OX1a (second screen): 30 µM compound; for IC50: read-out: IC50 for inhibition of Cqui\Orco+Cqui\Or21 activation by OLC12; for Mechanism of inhibition of Orco agonist (OLC12) activation: OLC12 raised from 3 µM to 30 µM
T1 sequence (Q309I4 entry or part of it): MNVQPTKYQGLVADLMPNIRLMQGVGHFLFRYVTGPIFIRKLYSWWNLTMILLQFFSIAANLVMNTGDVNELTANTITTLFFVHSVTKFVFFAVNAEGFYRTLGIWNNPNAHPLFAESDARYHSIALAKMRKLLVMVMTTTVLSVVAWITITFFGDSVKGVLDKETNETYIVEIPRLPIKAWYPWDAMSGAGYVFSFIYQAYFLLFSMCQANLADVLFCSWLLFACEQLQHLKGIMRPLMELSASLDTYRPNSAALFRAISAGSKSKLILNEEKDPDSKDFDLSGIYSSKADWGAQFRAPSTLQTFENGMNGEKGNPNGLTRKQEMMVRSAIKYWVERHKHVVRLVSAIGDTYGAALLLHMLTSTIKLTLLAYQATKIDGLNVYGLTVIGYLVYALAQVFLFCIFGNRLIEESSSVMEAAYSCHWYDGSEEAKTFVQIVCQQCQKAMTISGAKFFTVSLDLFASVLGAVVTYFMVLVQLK
Description: (§1) Oocytes were surgically removed from mature Xenopus laevis frogs. Follicle cells were removed by treatment with Collagenase B (Boehringer Mannhem) for 2 hours at room temperature. Capped cRNA encoding each OR subunit was generated using mMessage mMachine kits (Ambion). For heteromeric ORs, 25 ng of cRNA encoding each OR subunit was injected into Stage V-VI Xenopus oocytes. For expression of Orco alone, 50 ng of cRNA was injected. Oocytes were incubated at 18°C in Barth's saline (in mM: 88 NaCl, 1 KCl, 2.4 NaHCO3, 0.3 CaNO3, 0.41 CaCl2, 0.82 MgSO4, 15 HEPES, pH 7.6, and 150 µg/ml ceftazidime) for 2–5 days prior to electrophysiological recording.
(§2) Odorant and Orco ligand induced currents were recorded under two-electrode voltage clamp, using an automated parallel electrophysiology system (OpusExpress 6000A; Molecular Devices). Oocytes were perfused with ND96 (in mM: 96 NaCl, 2 KCl, 1 CaCl2, 1 MgCl2, 5 HEPES, pH 7.5). Orco ligands were prepared as 50 or 100 mM stock solutions in DMSO and then diluted into ND96 on the day of the experiment. Unless otherwise noted, applications were for 60 sec at a flow rate of 1.0 ml/min, with extensive washing in ND96 at 4.6 ml/min between applications. For the concentration-response protocol in Figure 1d , applications were for 20 sec at a flow rate of 1.65 ml/min. Micropipettes were filled with 3 M KCl and had resistances of 0.2–2.0 MΩ. The holding potential was -70 mV. Current responses, filtered (4-pole, Bessel, low pass) at 20 Hz (-3 db) and sampled at 100 Hz, were captured and stored using OpusXpress 1.1 software (Molecular Devices).
(§3) To screen for antagonist activity, oocytes were exposed to 60 sec applications of OLC12 with 4 min washes between applications (Figures 1B, 3, 4 and 5A,C,E) or 60 sec applications of odorant with 20 min washes between applications (Figures 1C,D and 5B,D,F). Oocytes were then exposed to a 90 sec application of antagonist candidate, immediately followed by a 60 sec co-application of antagonist candidate and OLC12 or odorant. Oocytes were then exposed to a final 60 sec application of OLC12 or odorant. The current response in the presence of antagonist candidate was compared to the preceding responses to OLC12 or odorant alone.
(§4) Initial analysis of electrophysiological data was done using Clampfit 9.1 software (Molecular Devices). Curve fitting and statistical analyses were done using Prism 5 (Graphpad). Concentration-response data were fit to the equation: I = Imax/(1+(EC50/X)^n) where I represents the current response at a given concentration of odorant, X; Imax is the maximal response; EC50 is the concentration of agonist yielding a half maximal response; n is the apparent Hill coefficient. Concentration-inhibition data were fit to the equation: I = Imax / (1+ (X/IC50)^n) where I represents the current response at a given concentration of inhibitor, X; Imax is the maximal response in the absence of inhibitor; IC50 is the concentration of inhibitor present that still allows a half maximal response from odorant; n is the apparent Hill coefficient. Statistical significance was assessed using a two-tailed unpaired t test, an F test, or a one-way analysis of variance followed by the Dunnett's post-test, as appropriate.

Cqui\Orco+Cqui\Or21 [2] = target: T1, Cqui\Orco+Cqui\Or21; assay: Agonist activation (concentration-response) of the OR expressed in Xenopus oocytes, two-electrode voltage clamp
Description: as §1, §2, §4

Cqui\Orco+Cqui\Or21 [3] = target: T1, Cqui\Orco+Cqui\Or21; assay: Inhibition of odorant (3-methylindole) activation of the OR expressed in Xenopus oocytes, two-electrode voltage clamp; details: for IC50: read-out: IC50 for inhibition of responses to 3MI; for Mechanism of inhibition of odorant activation: 10 nM, 100 nM, 1 µM 3-methylindole
Description: as §1, §2, §3, §4

[4] = activated by 3 µM OLC12, Xenopus oocytes

Structure (SMILES)	Inhibition of the OLC12 response compared with OX1a (screen) (Cqui\Orco+Cqui\Or21 [1])	nH (apparent Hill coefficient of concentration-inhibition curve) (Cqui\Orco+Cqui\Or21 [1]; [4])	IC50 (Cqui\Orco+Cqui\Or21 [1]; [4]) [µM]	further results
O=C(NC1CCCCC1)c1cccs1 [OX2, N-cyclohexyl-2-thiophenecarboxamide]	failed to significantly improve antagonist activity	–	–	–
CCCC(=O)c1ccc(NC(=O)c2cccs2)cc1 [OX1s, N-(4-butyrylphenyl)-2-thiophenecarboxamide]	–	–	–	Antagonist activity compared with the parent analog or OX1a (second screen) (Cqui\Orco+Cqui\Or21 [1]): significant loss of antagonist activity
O=C(Nc1cccc(Cl)c1)c1cccs1 [OX1g, N-(3-cholorphenyl)-2-thiophenecarboxamide]	significant improvement	1.0 ± 0.1	13 ± 1	–
CCn1c(SCC(=O)Nc2ccc(C(C)C)cc2)nnc1-c1ccncc1 [OLC12, 2-((4-ethyl-5-(4-pyridinyl)-4H-1,2,4-triazol-3-yl)sulfanyl)-N-(4-isopropylphenyl)-acetamide]	–	–	–	nH for OLC12 activation of Cqui\Orco+Cqui\Or21 (Cqui\Orco+Cqui\Or21 [2]): 1.42 ± 0.32; EC50 (Cqui\Orco+Cqui\Or21 [2]; read-out: EC50 for OLC12 activation of Cqui\Orco+Cqui\Or21): 6.6 ± 1.4 µM
Cc1cccc(NC(=O)c2cccs2)c1 [OX1c, N-(3-methylphenyl)-2-thiophenecarboxamide]	significantly improved antagonist activity	–	–	–
Cc1cc(C)c(NC(=O)c2cccs2)c(C)c1 [OX1l, N-mesityl-2-thiophenecarboxamide]	significantly improved antagonist activity	1.5 ± 0.1	3.8 ± 0.3	IC50 (Cqui\Orco+Cqui\Or21 [3]; 10 nM 3MI): 17 ± 1 µM; Mechanism of inhibition of odorant activation (Cqui\Orco+Cqui\Or21 [3]): non-competitive mechanism; IC50 (Cqui\Orco+Cqui\Or21 [3]; 100 nM 3MI): 16 ± 1 µM; IC50 (Cqui\Orco+Cqui\Or21 [3]; 1 µM 3MI): 19 ± 2 µM; Mechanism of inhibition of Orco agonist (OLC12) activation (Cqui\Orco+Cqui\Or21 [1]): competitive mechanism; IC50 (Cqui\Orco+Cqui\Or21 [1]; activated by 10 µM OLC12): 8.3 ± 0.5 µM; IC50 (Cqui\Orco+Cqui\Or21 [1]; activated by 30 µM OLC12): 24 ± 3 µM
Cc1cccc(NC(=O)c2sccc2Cl)c1 [OX1m, 3-chloro-N-(3-methylphenyl)-2-thiophenecarboxamide]	improved antagonist activity	–	–	–
CCc1ccccc1NC(=O)C=Cc1cccs1 [OX4, N-(2-ethylphenyl)-3-(2-thienyl)-2-propenamide]	–	0.9 ± 0.1	2.1 ± 0.3	IC50 (Cqui\Orco+Cqui\Or21 [3]; 10 nM 3MI): 3.4 ± 0.6 µM; Mechanism of inhibition of odorant activation (Cqui\Orco+Cqui\Or21 [3]): non-competitive mechanism; IC50 (Cqui\Orco+Cqui\Or21 [3]; 100 nM 3MI): 2.7 ± 0.4 µM; IC50 (Cqui\Orco+Cqui\Or21 [3]; 1 µM 3MI): 2.5 ± 0.3 µM; Antagonist activity compared with the parent analog or OX1a (second screen) (Cqui\Orco+Cqui\Or21 [1]): well tolerated; Mechanism of inhibition of Orco agonist (OLC12) activation (Cqui\Orco+Cqui\Or21 [1]): competitive mechanism; IC50 (Cqui\Orco+Cqui\Or21 [1]; activated by 10 µM OLC12): 8.8 ± 1.2 µM; IC50 (Cqui\Orco+Cqui\Or21 [1]; activated by 30 µM OLC12): 73 ± 5 µM
O=C(Nc1ccc(Br)cc1)c1cccs1 [OX1d, N-(4-bromophenyl)-2-thiophenecarboxamide]	failed to significantly improve antagonist activity	–	–	–
Cc1cccc(NC(=O)c2cccs2)c1C [OX1k, N-(2,3-dimethylphenyl)-2-thiophenecarboxamide]	significantly improved antagonist activity	0.8 ± 0.1	1.7 ± 0.2	–
Cc1ccc(NC(=O)c2cccs2)cc1 [OX1b, N-(4-methylphenyl)-2-thiophenecarboxamide]	significantly improved antagonist activity	–	–	–
O=C(NCc1ccccc1)c1cccs1 [OX3b, N-benzyl-2-thiophenecarboxamide]	–	1.1 ± 0.1	5.1 ± 0.5	Antagonist activity compared with the parent analog or OX1a (second screen) (Cqui\Orco+Cqui\Or21 [1]): well tolerated
CCC(=O)c1ccc(NC(=O)c2cccs2)cc1 [OX1r, N-(4-propionylphenyl)-2-thiophenecarboxamide]	–	–	–	Antagonist activity compared with the parent analog or OX1a (second screen) (Cqui\Orco+Cqui\Or21 [1]): significant loss of antagonist activity
O=C(Nc1cccc(Cl)c1)c1sccc1Cl [OX1q, 3-chloro-N-(3-chlorophenyl)-2-thiophenecarboxamide]	–	0.9 ± 0.1	7.8 ± 0.9	Antagonist activity compared with the parent analog or OX1a (second screen) (Cqui\Orco+Cqui\Or21 [1]): well tolerated
Cc1ccc(NC(=O)c2sccc2Cl)c(C)c1 [OX1o, 3-chloro-N-(2,4-dimethylphenyl)-2-thiophenecarboxamide]	–	1.1 ± 0.1	5.5 ± 0.7	Antagonist activity compared with the parent analog or OX1a (second screen) (Cqui\Orco+Cqui\Or21 [1]): significant loss of antagonist activity
O=C(Nc1cccc(Br)c1)c1cccs1 [OX1f, N-(3-bromophenyl)-2-thiophenecarboxamide]	significant improvement	–	–	–
CCc1ccc(NC(=O)c2cccs2)cc1 [OX1a, N-(4-ethylphenyl)-2-thiophenecarboxamide]	–	1.0 ± 0.1	51 ± 6	IC50 (Cqui\Orco+Cqui\Or21 [3]; 10 nM 3MI): 47 ± 5 µM; Mechanism of inhibition of odorant activation (Cqui\Orco+Cqui\Or21 [3]): non-competitive mechanism; IC50 (Cqui\Orco+Cqui\Or21 [3]; 100 nM 3MI): 42 ± 7 µM; IC50 (Cqui\Orco+Cqui\Or21 [3]; 1 µM 3MI): 50 ± 4 µM; Effect on maximal response to 3-methylindole (Cqui\Orco+Cqui\Or21 [3]; 50 µM OX1a co-applied): significantly reduced; Mechanism of inhibition of Orco agonist (OLC12) activation (Cqui\Orco+Cqui\Or21 [1]): competitive antagonist
COc1cccc(NC(=O)c2cccs2)c1 [OX1h, N-(3-methoxyphenyl)-2-thiophenecarboxamide]	significantly improved antagonist activity	–	–	–
Cc1cccc(C)c1NC(=O)c1sccc1Cl [OX1p, 3-chloro-N-(2,6-dimethylphenyl)-2-thiophenecarboxamide]	–	1.2 ± 0.1	7.2 ± 0.6	Antagonist activity compared with the parent analog or OX1a (second screen) (Cqui\Orco+Cqui\Or21 [1]): significant loss of antagonist activity
Cc1c[nH]c2ccccc12 [Compound 3MI, 3-methylindole]	–	–	–	EC50 (Cqui\Orco+Cqui\Or21 [2]; 3MI alone, read-out: EC50 for activation of Cqui\Orco+Cqui\Or21 by 3MI): 0.032 ± 0.007 µM; EC50 (Cqui\Orco+Cqui\Or21 [2]; in presence of 50 µM OX1a, read-out: EC50 for 3MI activation of Cqui\Orco+Cqui\Or21): 0.037 ± 0.007 µM
Cc1ccc(CNC(=O)c2cccs2)cc1 [OX3a, N-(4-methylbenzyl)-2-thiophenecarboxamide]	improved antagonist activity	1.0 ± 0.1	1.7 ± 0.2	IC50 (Cqui\Orco+Cqui\Or21 [3]; 10 nM 3MI): 2.6 ± 0.3 µM; Mechanism of inhibition of odorant activation (Cqui\Orco+Cqui\Or21 [3]): non-competitive mechanism; IC50 (Cqui\Orco+Cqui\Or21 [3]; 100 nM 3MI): 2.3 ± 0.2 µM; IC50 (Cqui\Orco+Cqui\Or21 [3]; 1 µM 3MI): 1.9 ± 0.1 µM; Mechanism of inhibition of Orco agonist (OLC12) activation (Cqui\Orco+Cqui\Or21 [1]): competitive mechanism; IC50 (Cqui\Orco+Cqui\Or21 [1]; activated by 10 µM OLC12): 12 ± 1 µM; IC50 (Cqui\Orco+Cqui\Or21 [1]; activated by 30 µM OLC12): 28 ± 2 µM
CCc1ccccc1NC(=O)c1cccs1 [OX1j, N-(2-ethylphenyl)-2-thiophenecarboxamide]	significantly improved antagonist activity	0.9 ± 0.1	5.4 ± 0.4	–
COc1ccc(NC(=O)c2cccs2)cc1 [OX1e, N-(4-methoxyphenyl)-2-thiophenecarboxamide]	significantly improved antagonist activity	–	–	–
CC(=O)c1cccc(NC(=O)c2cccs2)c1 [OX1i, N-(3-acetylphenyl)-2-thiophenecarboxamide]	significantly improved antagonist activity	1.3 ± 0.1	14 ± 1	–
CCN(C(=O)c1cccs1)c1ccccc1 [OX1n, N-ethyl-N-phenyl-2-thiophenecarboxamide]	improved antagonist activity	–	–	–

Reference: paper PMC3866151, “Phenylthiophenecarboxamide Antagonists of the Olfactory Receptor Co-Receptor Subunit from a Mosquito” (PLoS ONE, 2013)
